Measured values from patent publication US8609711B2, “Crystalline N-{(1S)-2-amino-1-[(3-fluorophenyl)methyl]ethyl}-5-chloro-4-(4-chloro-1-methyl-1H-pyrazol-5-yl)-2-thiophenecarboxamic hydrochloride” (GlaxoSmithKline LLC, priority 2009, dated 2013).
Entries after “also recorded” stand apart in the source; their conditions may differ.

Test: Hygroscopicity, VTI instrument SGA 100
Settings: for weight increase (moisture): 25 °C; for hygroscopicity (in words): hydrochloride
Text: There were 24 Relative Humidity steps used. The Relative Humidity at each step is as follows.

Compound | weight increase (moisture) (no drying, 24 relative humidity steps between 5 and 90, max equilibrium time 240 min) | hygroscopicity (in words) | weight increase (moisture) (drying at 60 °C, 19 relative humidity steps between 0 and 90, max equilibrium time 300 min)
Cl.Cn1ncc(Cl)c1-c1cc(C(=O)N[C@H](CN)Cc2cccc(F)c2)sc1Cl [Compound A] | less than 1 % w/w | non-hygroscopic; also recorded: low level of hygroscopicity | –
Cl.Cn1ncc(Cl)c1-c1cc(C(=O)N[C@H](CN)Cc2cccc(F)c2)sc1Cl [Example 3] | – | hygroscopic; also recorded: high level of hygroscopicity | more than 18 % w/w
